Results from patent US7598397B2, “Sulfonamide peri-substituted bicyclics for occlusive artery disease” (deCODE genetics ehf, priority 2004, dated 2009).

Molecular target: T1, prostanoid EP3 receptors (Homo sapiens, UniProt P43115)
T1 sequence (P43115 1-390): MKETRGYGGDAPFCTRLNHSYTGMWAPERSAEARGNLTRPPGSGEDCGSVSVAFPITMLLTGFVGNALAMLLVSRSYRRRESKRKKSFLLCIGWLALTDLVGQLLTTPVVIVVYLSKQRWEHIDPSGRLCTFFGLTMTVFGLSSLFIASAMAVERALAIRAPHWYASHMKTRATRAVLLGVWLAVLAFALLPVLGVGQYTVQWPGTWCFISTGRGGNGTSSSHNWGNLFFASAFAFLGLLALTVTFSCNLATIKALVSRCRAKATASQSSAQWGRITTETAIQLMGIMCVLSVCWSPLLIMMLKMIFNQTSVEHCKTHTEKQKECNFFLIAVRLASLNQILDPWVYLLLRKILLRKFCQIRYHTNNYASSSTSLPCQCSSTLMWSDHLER
Experiment: binding on prostanoid EP3 receptors (method of Abramovitz et al.)
Conditions: read-out: Activity (EP3 receptor binding, IC50 class)
Protocol: The compounds of the invention were assayed for their binding on prostanoid EP3 receptors according to the method of Abramovitz et al. [Bioch. Biophys.

| IC50 [nM] | SMILES |
| --- | --- |
| < 1000 | O=C(C=Cc1cccc2c1N(Cc1ccc3ccccc3c1)C(=O)C2(F)F)NS(=O)(=O)c1cc(Cl)c(Cl)s1 [Compound P180] |
| < 1000 | O=C(COc1cccc2[nH]cc(Sc3nc4ccccc4o3)c12)NS(=O)(=O)c1cc(Cl)c(Cl)s1 [Compound P181] |
| < 1000 | O=C(COc1cccc2[nH]cc(Sc3nc4ccccc4s3)c12)NS(=O)(=O)c1cc(Cl)c(Cl)s1 [Compound P182] |
| < 1000 | O=C(COc1cccc2[nH]cc(Sc3ccc4ccccc4c3)c12)NS(=O)(=O)c1ccccc1Cl [Compound P183] |
| < 1000 | O=C(COc1cccc2[nH]cc(Sc3ccc4ccccc4c3)c12)NS(=O)(=O)c1cccc(Cl)c1 [Compound P184] |
| < 1000 | O=C(COc1cccc2[nH]cc(S(=O)(=O)c3ccc4ccccc4c3)c12)NS(=O)(=O)c1cccc(Cl)c1 [Compound P192] |
| < 1000 | COc1ccc(S(=O)(=O)NC(=O)COc2cccc3[nH]cc(S(=O)(=O)c4ccc5ccccc5c4)c23)cc1 [Compound P193] |
| < 1000 | Cn1c(Sc2c[nH]c3cccc(OCC(=O)NS(=O)(=O)c4cc(Cl)c(Cl)s4)c23)nc2ccccc21 [Compound P195] |
| < 1000 | COc1ccc(Sc2c[nH]c3cccc(OCC(=O)NS(=O)(=O)c4cc(Cl)c(Cl)s4)c23)cc1 [Compound P200] |
| < 1000 | O=C(COc1cccc2[nH]cc(S(=O)(=O)c3ccc(Cl)c(Cl)c3)c12)NS(=O)(=O)c1cc(Cl)c(Cl)s1 [Compound P204] |
| < 1000 | O=C(COc1cccc2[nH]cc(Sc3ccc(Cl)cc3Cl)c12)NS(=O)(=O)c1cc(Cl)c(Cl)s1 [Compound P205] |
| < 1000 | O=C(COc1cccc2[nH]cc(Sc3ccc(F)c(F)c3)c12)NS(=O)(=O)c1cc(Cl)c(Cl)s1 [Compound P209] |
| < 1000 | COc1ccc(S(=O)(=O)c2c[nH]c3cccc(OCC(=O)NS(=O)(=O)c4cc(Cl)c(Cl)s4)c23)cc1 [Compound P210] |
| < 1000 | O=C(COc1cccc2[nH]cc(Sc3ncccn3)c12)NS(=O)(=O)c1cc(Cl)c(Cl)s1 [Compound P211] |
| < 1000 | COc1ccccc1Sc1c[nH]c2cccc(OCC(=O)NS(=O)(=O)c3cc(Cl)c(Cl)s3)c12 [Compound P212] |
| < 1000 | O=C(COc1cccc2[nH]cc(Sc3ccccc3Cl)c12)NS(=O)(=O)c1cc(Cl)c(Cl)s1 [Compound P213] |
| < 1000 | O=C(C=Cc1cccc2c1N(Cc1ccc(Cl)cc1Cl)C(=O)C2(F)F)NS(=O)(=O)c1cccs1 [Compound P216] |
| < 1000 | O=C(C=Cc1cccc2c1N(Cc1ccc3ccccc3c1)C(=O)C2)NS(=O)(=O)c1cccs1 [Compound P217] |
| < 1000 | O=C(C=Cc1cccc2c1N(Cc1ccc3ccccc3c1)C(=O)C2(F)F)NS(=O)(=O)c1cccs1 [Compound P218] |
| < 1000 | O=C(COc1cccc2[nH]cc(Sc3ccc4ccccc4c3)c12)NS(=O)(=O)c1ccc(F)cc1 [Compound P225] |
| < 1000 | O=C(COc1cccc2[nH]cc(Sc3ccc4ccccc4c3)c12)NS(=O)(=O)c1cc(F)c(F)cc1F [Compound P226] |

| IC50 [nM] | SMILES |
| --- | --- |
| < 1000 | Cn1nnnc1Sc1c[nH]c2cccc(OCC(=O)NS(=O)(=O)c3cc(Cl)c(Cl)s3)c12 [Compound P227] |
| < 1000 | CN1C(=O)C(Sc2ccc3ccccc3c2)c2c(OCC(=O)NS(=O)(=O)c3cc(Cl)c(Cl)s3)cccc21 (stereo not shown) [Compound P229] |
| < 1000 | Cc1nnc(Sc2c[nH]c3cccc(OCC(=O)NS(=O)(=O)c4cc(Cl)c(Cl)s4)c23)s1 [Compound P230] |
| < 1000 | CC(=O)Nc1ccc(Sc2c[nH]c3cccc(OCC(=O)NS(=O)(=O)c4cc(Cl)c(Cl)s4)c23)cc1 [Compound P233] |
| < 1000 | O=C(COc1cccc2[nH]cc(S(=O)(=O)c3ccc(F)cc3Cl)c12)NS(=O)(=O)c1cc(Cl)c(Cl)s1 [Compound P234] |
| < 1000 | CC(=O)Nc1ccc(S(=O)(=O)c2c[nH]c3cccc(OCC(=O)NS(=O)(=O)c4cc(Cl)c(Cl)s4)c23)cc1 [Compound P235] |
| < 1000 | O=C(COc1cccc2[nH]cc(S(=O)(=O)c3ccc4ccccc4c3)c12)NS(=O)(=O)c1ccc(F)cc1 [Compound P236] |
| < 1000 | O=C(COc1cccc2[nH]cc(S(=O)(=O)c3ccc4ccccc4c3)c12)NS(=O)(=O)c1cc(F)c(F)cc1F [Compound P237] |
| < 1000 | Cn1nnnc1S(=O)(=O)c1c[nH]c2cccc(OCC(=O)NS(=O)(=O)c3cc(Cl)c(Cl)s3)c12 [Compound P239] |
| < 1000 | O=C(COc1cccc2[nH]cc(S(=O)(=O)c3nc[nH]n3)c12)NS(=O)(=O)c1cc(Cl)c(Cl)s1 [Compound P240] |
| < 1000 | O=C(C=Cc1cccc2c1C(Nc1ccc3ccccc3c1)C(=O)N2)NS(=O)(=O)c1cc(Cl)c(Cl)s1 (stereo not shown) [Compound P241] |
| < 1000 | CN1C(=O)C(Nc2ccc3ccccc3c2)c2c(C=CC(=O)NS(=O)(=O)c3cc(Cl)c(Cl)s3)cccc21 (stereo not shown) [Compound P242] |
| < 1000 | O=C(COc1cccc2[nH]cc(Sc3ccc4ccccc4c3)c12)NS(=O)(=O)C(F)(F)F [Compound P243] |
| < 1000 | O=C(C=Cc1cccc2c1C(=Nc1ccc3ccccc3c1)C(=O)N2)NS(=O)(=O)c1cc(Cl)c(Cl)s1 [Compound P244] |
| < 1000 | CN1C(=O)C(=Nc2ccc3ccccc3c2)c2c(C=CC(=O)NS(=O)(=O)c3cc(Cl)c(Cl)s3)cccc21 [Compound P245] |
| < 1000 | CN1C(=O)C(S(=O)(=O)c2ccc3ccccc3c2)c2c(OCC(=O)NS(=O)(=O)c3cc(Cl)c(Cl)s3)cccc21 (stereo not shown) [Compound P248] |
| < 1000 | CN1C(=O)C(Nc2ccc(Cl)cc2Cl)c2c(C=CC(=O)NS(=O)(=O)c3cc(Cl)c(Cl)s3)cccc21 (stereo not shown) [Compound P252] |
| < 1000 | COc1cccc(CN2C(=O)CC3(C)CCCC(C=CC(=O)NS(=O)(=O)c4cc(Cl)c(Cl)s4)=C23)c1 (stereo not shown) [Compound P260] |
| < 1000 | CC12CCCC(C=CC(=O)NS(=O)(=O)c3cc(Cl)c(Cl)s3)=C1N(Cc1cccc(F)c1)C(=O)C2 (stereo not shown) [Compound P262] |
| < 1000 | CC12CCCC(C=CC(=O)NS(=O)(=O)c3cc(Cl)c(Cl)s3)=C1N(Cc1ccc(F)cc1)C(=O)C2 (stereo not shown) [Compound P263] |
| < 1000 | CC12CCCC(/C=C/C(=O)NS(=O)(=O)c3cc(Cl)c(Cl)s3)=C1N(Cc1ccc(F)c(F)c1)C(=O)C2 (stereo not shown) [Compound P264] |

| IC50 [nM] | SMILES |
| --- | --- |
| < 1000 | CN1C(=O)C(Oc2ccc3ccccc3c2)c2c(/C=C/C(=O)NS(=O)(=O)c3cc(Cl)c(Cl)s3)cccc21 (stereo not shown) [Compound P265, 4,5-dichloro-thiophene-2-sulfonic acid {(E)-3-[1-methyl-3-(naphthalen-2-yloxy)-2-oxo-2,3-dihydro-1H-indol-4-yl]-acryloyl}-amide] |
| < 1000 | CC12CCCC(C=CC(=O)NS(=O)(=O)c3cc(Cl)cc(Cl)c3)=C1N(Cc1ccc(F)c(F)c1)C(=O)C2 (stereo not shown) [Compound P266] |
| < 1000 | CC12CCCC(C=CC(=O)NS(=O)(=O)c3ccc(OC(F)(F)F)cc3)=C1N(Cc1ccc3ccccc3c1)C(=O)C2 (stereo not shown) [Compound P269] |
| < 1000 | CN1C(=O)C(Nc2ccc(Cl)c(Cl)c2)c2c(C=CC(=O)NS(=O)(=O)c3cc(Cl)c(Cl)s3)cccc21 (stereo not shown) [Compound P271] |
| < 1000 | CN1C(=O)C(Nc2ccc(F)c(F)c2)c2c(C=CC(=O)NS(=O)(=O)c3cc(Cl)c(Cl)s3)cccc21 (stereo not shown) [Compound P272] |
| < 1000 | CC(C)(C)OC(=O)N1CCCc2cccc(OCC(=O)NS(=O)(=O)c3cccs3)c21 [Compound P273] |
| < 1000 | CC12CCCC(C=CC(=O)NS(=O)(=O)c3ccc(F)cc3)=C1N(Cc1ccc(Cl)cc1Cl)C(=O)C2 (stereo not shown) [Compound P274] |
| < 1000 | CC12CCCC(C=CC(=O)NS(=O)(=O)c3cc(F)c(F)cc3F)=C1N(Cc1ccc(Cl)cc1Cl)C(=O)C2 (stereo not shown) [Compound P275] |
| < 1000 | CC12CCCC(C=CC(=O)NS(=O)(=O)c3cccs3)=C1N(Cc1ccc(Cl)cc1Cl)C(=O)C2 (stereo not shown) [Compound P276] |
| < 1000 | Cn1cc(Oc2ccc3ccccc3c2)c2c(C=CC(=O)NS(=O)(=O)c3cc(Cl)c(Cl)s3)cccc21 [Compound P277] |
| < 1000 | CC12CCCC(C=CC(=O)NS(=O)(=O)c3cc(Cl)c(Cl)s3)=C1N(Cc1ccc(Cl)cc1Cl)C(=O)C2 (stereo not shown) [Compound P278] |
| < 1000 | CC12CCCC(C=CC(=O)NS(=O)(=O)c3ccc(Cl)s3)=C1N(Cc1ccc(Cl)cc1Cl)C(=O)C2 (stereo not shown) [Compound P279] |
| < 1000 | CC12CCCC(C=CC(=O)NS(=O)(=O)c3cc(Cl)cc(Cl)c3)=C1N(Cc1ccc(Cl)cc1Cl)C(=O)C2 (stereo not shown) [Compound P280] |
| < 1000 | CC12CCCC(C=CC(=O)NS(=O)(=O)c3cccc(Cl)c3)=C1N(Cc1ccc(Cl)cc1Cl)C(=O)C2 (stereo not shown) [Compound P281] |
| < 1000 | CC12CCCC(C=CC(=O)NS(=O)(=O)c3cc(F)cc(F)c3)=C1N(Cc1ccc(Cl)cc1Cl)C(=O)C2 (stereo not shown) [Compound P282] |
| < 1000 | CC12CCCC(C=CC(=O)NS(=O)(=O)c3ccc(F)c(F)c3)=C1N(Cc1ccc(Cl)cc1Cl)C(=O)C2 (stereo not shown) [Compound P283] |
| 1000 to 10000 | Cn1nc(NS(=O)(=O)c2cc(Cl)c(Cl)s2)c2c(Oc3ccc4ccccc4c3)cccc21 [Compound P284, 4,5-Dichloro-thiophene-2-sulfonic acid [1-methyl-4-(naphthalen-2-yloxy)-1H-indazol-3-yl]-amide] |
| < 1000 | CC12CCCC(C=CC(=O)NS(=O)(=O)c3cc(Cl)c(Cl)s3)=C1N(Cc1cccc(Cl)c1)C(=O)C2 (stereo not shown) [Compound P285] |
| < 1000 | O=C(C=Cc1cccc2c1C(Nc1cc(Cl)cc(Cl)c1)C(=O)N2)NS(=O)(=O)c1cc(Cl)c(Cl)s1 (stereo not shown) [Compound P286] |
